# Test results taken from ChEMBL document CHEMBL1130154, “Molecular modeling and 3D-QSAR studies on the interaction mechanism of tripeptidyl thrombin inhibitors with human alpha-thrombin” (J Med Chem, 1997).
# Square brackets hold non-standard residues; d marks the D form. Peptide text beside a SMILES is read from it. Tic = O=C(O)[C@@H]1Cc2ccccc2CN1
# Biological target: Prothrombin (Homo sapiens, UniProt P00734)
# Test: In vitro inhibitory activity against human Prothrombin
row,SMILES,IC50 [nM]
1,CC[C@@H](C(=O)N1CCC[C@H]1C(=O)N[C@H](C=O)CCCNC(=N)N)c1ccccc1,130
2,N=C(N)NCCC[C@@H](C=O)NC(=O)[C@@H]1CCCN1C(=O)[C@H]1NCCc2ccccc21,19
3,CO[C@@H](C(=O)N1CCC[C@H]1C(=O)N[C@H](C=O)CCCN=C(N)N)c1ccccc1,250
4,C[C@@H](C(=O)N1CCC[C@H]1C(=O)N[C@H](C=O)CCCNC(=N)N)c1ccccc1,94
5,CC(C)(C)OC(=O)N[C@@H](C(=O)N1CCC[C@H]1C(=O)N[C@H](C=O)CCCNC(=N)N)c1ccc2ccccc2c1,18
6,CC(C)(C)OC(=O)N[C@@H](C(=O)N1CCC[C@H]1C(=O)N[C@H](C=O)CCCNC(=N)N)c1cccc2ccccc12,23
7,C[C@H](C(=O)N1CCC[C@H]1C(=O)N[C@H](C=O)CCCNC(=N)N)c1ccccc1,5100
8,CC(C)(C)OC(=O)N[C@@H](C(=O)N1CCC[C@H]1C(=O)N[C@H](C=O)CCCN=C(N)N)c1cccc(C(F)(F)F)c1,27
9,N=C(N)NCCC[C@@H](C=O)NC(=O)[C@@H]1CCCN1C(=O)[C@@H]1Cc2ccccc2CN1 (H-[Tic]-Pro-Arg-aldehyde),25
10,CC(C)(C)OC(=O)NC(C(=O)N1CCC[C@H]1C(=O)N[C@H](C=O)CCCN=C(N)N)c1cccc2ccccc12 (stereo in doubt; 12),55
11,CC(C)(C)OC(=O)NC(C(=O)N1CCC[C@H]1C(=O)N[C@H](C=O)CCCN=C(N)N)c1cccc2ccccc12 (stereo in doubt; 13),85
